The test system of one assay is High fat diet-fed mice. Put plainly: Fecal protein concentration-increasing test using high fat diet-fed mouse. In kind it is in vivo. Conditions: 30 mg/kg oral, feces of first day of administration; for response vs control in vivo at 30 mg/kg: Mus musculus, po, 24 h, vehicle group = 100, read-out: Fecal protein concentration-increasing rate. The source says:
Test Example 2: Fecal Protein Concentration-Increasing Test Using High Fat Diet-Fed Mouse
High fat diet-fed mice (D12451 diet, male, 10- to 50-week old) were orally administered with a 0.5% methyl cellulose suspension containing a test compound (compound administration group, five mice per group) or a 0.5% methyl cellulose suspension (compound non-administration group (vehicle group), five mice per group), and whole feces were collected on the first day of administration. Dried feces were dissolved in 0.5 N NaOH, followed by centrifugation at 12,000 rpm. The protein concentration in the supernatant was then quantitatively measured (Lowry method), and the amount of protein contained in 1 g of feces was calculated as the fecal protein concentration (mg/g feces). The fecal protein concentration-increasing rate was calculated by the following expression.
Fecal protein concentration-increasing rate (%)=Fecal protein concentration of compound administration group/Fecal protein concentration of vehicle group×100

Assay [1] concerns the target T1, Human recombinant enteropeptidase (Homo sapiens, UniProt P98073).
T1 construct: purchased ITSI-Biosciences LLC #REN-260
The experiment in a line: Human enteropeptidase inhibitory activity. The class given is biochemical. Conditions: 1 μM test compound; fluorescence intensity at 2 hours after start of reaction; read-out: Inhibition rate at 1 μM. As to the method:
Test Example 1: Human Enteropeptidase Inhibitory Activity
Human recombinant enteropeptidase (#REN-260, ITSI-Biosciences LLC) was diluted with an assay buffer (50 mM Tricine, pH 8.0, 0.01 (w/v) %, Tween 20, 10 mM CaCl2)) to prepare a 24 mU/mL enzyme solution. Subsequently, 5FAM-Abu-Gly-Asp-Asp-Asp-Lys-Ile-Val-Gly-Gly-Lys(CPQ2)-Lys-Lys-NH2 (CPC Scientific Inc.) was diluted with the assay buffer to prepare a 2.1 μM substrate solution. A test compound is dissolved in DMSO into a 10 mM solution, and the solution was diluted with the assay buffer to give a compound solution. To a 384-well black plate (#784076, Greiner Bio-One), 5 μL of the compound solution and 5 μL of the substrate solution were added and mixed, and 5 μL of the enzyme solution was then added to the mixture, followed by mixing to start the reaction. The fluorescence intensity was measured with a fluorescence plate reader EnVision (The Perkin-Elmer Corp.) at an excitation wavelength of 485 nm and a fluorescence wavelength of 535 nm. The same reaction as above was performed without the addition of the test compound (test compound non-addition group). Furthermore, the same reaction as above was performed without the addition of the test compound and the enzyme (control group). The inhibition rate was calculated using the fluorescence intensity at 2 hours after the start of the reaction by the following expression:
Inhibition rate (%)=(1−((fluorescence intensity of test compound addition group)−(fluorescence intensity of control group))/((fluorescence intensity of test compound non-addition group)−(fluorescence intensity of control group)))×100

The test system of assay [2] is Diet-induced obesity (DIO) mice. The experiment in a line: Anti-obesity effect test using DIO mouse. The class given is in vivo. Conditions: for Body weight (g) At start of administration: average at start of administration; for Body weight (g) After 7-day administration: average; for Fecal protein concentration-increasing rate (%): feces of eighth day, vehicle = 100. How it is done: Test Example 3: Anti-Obesity Effect Test Using DIO Mouse
Diet-induced obesity (DIO) mice (D12451 diet, male, 26-week old) were orally administered with a 0.5% methyl cellulose suspension containing a test compound (30 mg/kg) (compound administration group, five mice per group) or a 0.5% methyl cellulose suspension (compound non-administration group (vehicle), five mice per group) once a day for seven days, and whole feces were collected on the eighth day of administration. Dried feces were dissolved in 0.5 N NaOH, followed by centrifugation at 12,000 rpm. The protein concentration in the supernatant was then quantitatively measured (Lowry method), and the amount of protein contained in 1 g of feces was calculated as the fecal protein concentration (mg/g feces). The fecal protein concentration-increasing rate was calculated by the following expression.
Fecal protein concentration-increasing rate (%)=Fecal protein concentration of compound administration group/Fecal protein concentration of vehicle group X 100
The fecal protein concentration-increasing rate and the averages of the body weights at the start of administration and after administration for seven days are shown in Table 6.
Also, DIO mice (D12451 diet, male, 59-week old) were orally administered with a 0.5% methyl cellulose suspension containing a test compound (20 mg/kg) (compound administration group, five mice per group) or a 0.5% methyl cellulose suspension (compound non-administration group (vehicle), five mice per group) once a day for seven days, and whole feces were collected on the eighth day of administration. The fecal protein concentration (mg/g feces) was calculated by the method described above. The fecal protein concentration-increasing rate and the averages of the body weights at the start of administration and after administration for seven days are shown in Table 7.

[3] abbreviates: DIO mice 26-week old, 30 mg/kg oral once a day for seven days.
Where [4] appears, read: DIO mice 59-week old, 20 mg/kg oral once a day for seven days.

Where a name gives a salt, the structure may show the parent alone.

T1 sequence (P98073 whole entry): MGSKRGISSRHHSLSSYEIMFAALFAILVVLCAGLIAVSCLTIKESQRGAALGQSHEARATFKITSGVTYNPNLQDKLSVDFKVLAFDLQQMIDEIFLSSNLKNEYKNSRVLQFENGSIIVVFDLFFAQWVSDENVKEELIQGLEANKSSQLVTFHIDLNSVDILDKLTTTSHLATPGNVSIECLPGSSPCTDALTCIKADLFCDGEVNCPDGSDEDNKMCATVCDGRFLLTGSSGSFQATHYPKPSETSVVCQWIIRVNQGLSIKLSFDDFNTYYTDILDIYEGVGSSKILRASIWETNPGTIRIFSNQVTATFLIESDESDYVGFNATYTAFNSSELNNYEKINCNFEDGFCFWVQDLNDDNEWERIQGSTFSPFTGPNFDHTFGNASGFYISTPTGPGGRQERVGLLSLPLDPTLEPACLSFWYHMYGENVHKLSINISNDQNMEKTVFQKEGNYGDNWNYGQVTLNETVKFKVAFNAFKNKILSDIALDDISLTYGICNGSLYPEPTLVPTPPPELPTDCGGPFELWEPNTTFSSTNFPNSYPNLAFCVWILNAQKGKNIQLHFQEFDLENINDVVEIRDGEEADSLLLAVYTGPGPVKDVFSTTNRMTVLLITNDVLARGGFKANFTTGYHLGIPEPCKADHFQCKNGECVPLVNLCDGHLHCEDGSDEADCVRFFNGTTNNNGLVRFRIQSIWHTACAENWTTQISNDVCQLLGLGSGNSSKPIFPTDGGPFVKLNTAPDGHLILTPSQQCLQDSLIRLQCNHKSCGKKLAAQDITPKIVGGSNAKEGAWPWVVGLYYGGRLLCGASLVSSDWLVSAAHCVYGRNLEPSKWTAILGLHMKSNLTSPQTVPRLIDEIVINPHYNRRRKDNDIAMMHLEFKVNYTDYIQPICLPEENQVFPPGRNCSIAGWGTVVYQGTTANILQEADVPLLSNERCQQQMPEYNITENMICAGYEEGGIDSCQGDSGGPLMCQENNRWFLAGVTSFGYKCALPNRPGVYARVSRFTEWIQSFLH

Turning to `N=C(N)Nc1ccc(C(=O)Oc2cc(OCCOCCOCCOc3cc(OC(=O)c4ccc(NC(=N)N)cc4)cc(C(=O)N[C@@H](CC(=O)O)C(=O)O)c3)cc(C(=O)N[C@@H](CC(=O)O)C(=O)O)c2)cc1` [Example 1, (2S)-2-[[3-[2-[2-[2-[3-[[(1S)-1,2-Dicarboxyethyl]carbamoyl]-5-(4-guanidinobenzoyl)oxyphenoxy]ethoxy]ethoxy]ethoxy]-5-(4-guanidinobenzoyl)oxybenzoyl]amino]butanedioic acid ditrifluoroacetate], the response vs control in vivo at 30 mg/kg in the assay with High fat diet-fed mice turned out to be 159%. Further, the inhibition at 1 µM in assay [1] is 98%.
The matching figures for `N=C(N)Nc1ccc(C(=O)Oc2cc(OCCOCCOCCOCCOCCOc3cc(OC(=O)c4ccc(NC(=N)N)cc4)cc(C(=O)N[C@@H](CC(=O)O)C(=O)O)c3)cc(C(=O)N[C@@H](CC(=O)O)C(=O)O)c2)cc1` [Example 2, (2S)-2-[[3-[2-[2-[2-[2-[2-[3-[[(1S)-1,2-Dicarboxyethyl]carbamoyl]-5-(4-guanidinobenzoyl)oxyphenoxy]ethoxy]ethoxy]ethoxy]ethoxy]ethoxy]-5-(4-guanidinobenzoyl)oxybenzoyl]amino]butanedioic acid]: 142% and 98%.
The matching figures for `N=C(N)Nc1ccc(C(=O)Oc2cc(OCCOCCOCCOCCOCCOCCOCCOc3cc(OC(=O)c4ccc(NC(=N)N)cc4)cc(C(=O)N[C@@H](CC(=O)O)C(=O)O)c3)cc(C(=O)N[C@@H](CC(=O)O)C(=O)O)c2)cc1` [Example 3, (2S)-2-[[3-[2-[2-[2-[2-[2-[2-[2-[3-[[(1S)-1,2-Dicarboxyethyl]carbamoyl]-5-(4-guanidinobenzoyl)oxyphenoxy]ethoxy]ethoxy]ethoxy]ethoxy]ethoxy]ethoxy]ethoxy]-5-(4-guanidinobenzoyl)oxybenzoyl]amino]butanedioic acid]: 152% and 98%.
Turning to `N=C(N)Nc1ccc(C(=O)Oc2ccc(CCC(=O)N[C@@H](CC(=O)O)C(=O)O)c(OCCOCCOCCOc3cc(OC(=O)c4ccc(NC(=N)N)cc4)ccc3CCC(=O)N[C@@H](CC(=O)O)C(=O)O)c2)cc1` [Example 4, (2S)-2-[3-[2-[2-[2-[2-[2-[3-[[(1S)-1,2-Dicarboxyethyl]amino]-3-oxopropyl]-5-(4-guanidinobenzoyl)oxyphenoxy]ethoxy]ethoxy]ethoxy]-4-(4-guanidinobenzoyl)oxyphenyl]propanoylamino]butanedioic acid ditrifluoroacetate], the “Fecal protein concentration-increasing rate” value in the assay on High fat diet-fed mice (vehicle group = 100, ditrifluoroacetate) is recorded as 181%.
With `N=C(N)Nc1ccc(C(=O)Oc2cc(OCCOCCOCCOc3cc(OC(=O)c4ccc(NC(=N)N)cc4)cc(C(=O)N(CC(=O)O)CC(=O)O)c3)cc(C(=O)N(CC(=O)O)CC(=O)O)c2)cc1` [Example 5, 2-[[3-[2-[2-[2-[3-[Bis(carboxymethyl)carbamoyl]-5-(4-guanidinobenzoyl)oxyphenoxy]ethoxy]ethoxy]ethoxy]-5-(4-guanidinobenzoyl)oxybenzoyl]-(carboxymethyl)amino]acetic acid ditrifluoroacetate], in the assay on High fat diet-fed mice, the response vs control in vivo at 30 mg/kg worked out at 158%. The inhibition at 1 µM in assay [1] was found to be 99%.
For `N=C(N)Nc1ccc(C(=O)Oc2cc(OCCOCCOCCOc3cc(OC(=O)c4ccc(NC(=N)N)cc4)cc(C(=O)N[C@H](CC(=O)O)C(=O)O)c3)cc(C(=O)N[C@H](CC(=O)O)C(=O)O)c2)cc1` [Example 6, (2R)-2-[[3-[2-[2-[2-[3-[[(1R)-1,2-Dicarboxyethyl]carbamoyl]-5-(4-guanidinobenzoyl)oxyphenoxy]ethoxy]ethoxy]ethoxy]-5-(4-guanidinobenzoyl)oxybenzoyl]amino]butanedioic acid ditrifluoroacetate], the response vs control in vivo at 30 mg/kg in the assay with High fat diet-fed mice came to 203%. In assay [1], the inhibition at 1 µM turned out to be 100%.
As to `N=C(N)c1ccc(OC(=O)c2cc(OCCOCCOCCOc3cc(C(=O)N[C@@H](CC(=O)O)C(=O)O)cc(C(=O)Oc4ccc(C(=N)N)cc4)c3)cc(C(=O)N[C@@H](CC(=O)O)C(=O)O)c2)cc1` [Example 7, (2S)-2-[[3-(4-Carbamimidoylphenoxy)carbonyl-5-[2-[2-[2-[3-(4-carbamimidoylphenoxy)carbonyl-5-[[(1S)-1,2-dicarboxyethyl]carbamoyl]phenoxy]ethoxy]ethoxy]ethoxy]benzoyl]amino]butanedioic acid ditrifluoroacetate], in the assay on High fat diet-fed mice, the response vs control in vivo at 30 mg/kg came to 115%. Also, the inhibition at 1 µM in assay [1] amounted to 100%.
The corresponding values for `N=C(N)Nc1ccc(C(=O)Oc2cc(OCCOCCOc3cc(OC(=O)c4ccc(NC(=N)N)cc4)cc(C(=O)N[C@@H](CC(=O)O)C(=O)O)c3)cc(C(=O)N[C@@H](CC(=O)O)C(=O)O)c2)cc1` [Example 8, (2S)-2-[[3-[2-[2-[3-[[(1S)-1,2-Dicarboxyethyl]carbamoyl]-5-(4-guanidinobenzoyl)oxyphenoxy]ethoxy]ethoxy]-5-(4-guanidinobenzoyl)oxybenzoyl]amino]butanedioic acid ditrifluoroacetate] are 210% and 100%.
As for `N=C(N)Nc1ccc(C(=O)Oc2cc(OCCOc3cc(OC(=O)c4ccc(NC(=N)N)cc4)cc(C(=O)N[C@@H](CC(=O)O)C(=O)O)c3)cc(C(=O)N[C@@H](CC(=O)O)C(=O)O)c2)cc1` [Example 9, (2S)-2-[[3-[2-[3-[[(1S)-1,2-Dicarboxyethyl]carbamoyl]-5-(4-guanidinobenzoyl)oxyphenoxy]ethoxy]-5-(4-guanidinobenzoyl)oxybenzoyl]amino]butanedioic acid], the response vs control in vivo at 30 mg/kg with High fat diet-fed mice worked out at 195%. For the same compound, the inhibition at 1 µM in assay [1] stood at 100%.
As for `N=C(N)Nc1ccc(C(=O)Oc2cc(OCCOCCOc3cc(OC(=O)c4ccc(NC(=N)N)cc4)cc(C(=O)N[C@@H](CC(=O)O)C(=O)O)c3)cc(C(=O)N[C@@H](CC(=O)O)C(=O)O)c2)cc1` [Example 17, (2S)-2-[[3-[2-[2-[3-[[(1S)-1,2-Dicarboxyethyl]carbamoyl]-5-(4-guanidinobenzoyl)oxyphenoxy]ethoxy]ethoxy]-5-(4-guanidinobenzoyl)oxybenzoyl]amino]butanedioic acid dihydrochloride], in assay [2] (DIO mice 26-week old, 30 mg/kg group), the “Body weight (g) At start of administration” value is listed as 45.6 g. In assay [2] (setting [3]), the “Body weight (g) After 7-day administration” value amounted to 44.3 g and the “Fecal protein concentration-increasing rate (%)” value came to 252%.
In the case of `N=C(N)Nc1ccc(C(=O)Oc2ccc(C(=O)N[C@H](CC(=O)O)C(=O)O)c(OCCOc3cc(OC(=O)c4ccc(NC(=N)N)cc4)ccc3C(=O)N[C@H](CC(=O)O)C(=O)O)c2)cc1` [Example 22, (2R)-2-[[2-[2-[2-[[(1R)-1,2-Dicarboxyethyl]carbamoyl]-5-(4-guanidinobenzoyl)oxyphenoxy]ethoxy]-4-(4-guanidinobenzoyl)oxybenzoyl]amino]butanedioic acid dihydrochloride], in assay [2] (DIO mice 59-week old, 20 mg/kg group), the “Body weight (g) At start of administration” value came to 56.5 g. In addition, in assay [2] (setting [4]), the “Body weight (g) After 7-day administration” value stood at 55.1 g and the “Fecal protein concentration-increasing rate (%)” value was 221%.

The record behind these values is US20210403420A1, “BENZOATE COMPOUND” (SCOHIA PHARMA, INC., priority 2018, published 2021).
